The source of these data is patent publication US11124489B2, “EPAC antagonists” (priority 2017, dated 2021).

The conditions of series [1]: mice, single IP injection 10 mg/kg. As for the experimental part:
In vivo pharmacokinetic studies were performed in four week old female C57BL6/N mice.

Series [2] relates to R. australia. As to conditions: 10 mg/kg IP daily, lethal dose of R. australia. On the procedure:
WT C57BL/6 mice were treated with vehicle or ESI-09 (10 mg/kg, IP) daily. Five days after the treatment, mice were challenged with lethal dose of R. australia and continued ESI-09 daily treatment.

The test system of a further series is leptin. As to conditions: wild-type mice, 50 mg/kg oral gavage for 3 weeks, relative to vehicle. As for the experimental part:
(§1) To explore the feasibility of increasing leptin sensitivity by targeting Epac1 using small molecules, organotypic brain slice cultures were prepared from 11-day old wild-type C57BL/6 mice. After 7 days ex vivo culture, treatment of the brain tissue with the Epac specific antagonist ESI-09 led to an enhanced pSTAT3 Y705 level both at the basal state and in response to leptin stimulation. […] These pharmacological data are in agreement with results obtained using Epac1 KO mice and further confirm that inhibition of Epac1 enhances leptin signaling in the hypothalamus. To further investigate the therapeutic potential of this small molecule, wild-type mice were with ESI-09 (50 mg/kg) or vehicle (corn oil) by oral gavage for 3 weeks.

The subject of a further series is pSTAT3 Y705. Conditions: brain slices, basal state and in response to leptin stimulation. On the procedure:
as §1

For series [3], the target named is T1, EPAC1 (Homo sapiens (Human), UniProt O95398).
Series [4] has as its target T2, EPAC2 (Mus musculus (Mouse), UniProt Q9EQZ6). As to conditions: for Relative GEF activity, EPAC2-mediated Rap1b-bGDP exchange: in the presence of 20 μM cAMP, figure; for IC50: read-out: Rap1b-bGDP EPAC2 IC50, apparent IC50, EPAC2 GEF activity, 20 μM cAMP.
Description: (§3) In Vitro Evaluation of EPAC2 Inhibition.
(§4) In vitro EPAC GEF activity was acquired as previously described (Zhu et al., Sci. Rep. (2015) 5:9344). Briefly, the assay was performed using 500 nM Rap1b-BODIPY-GDP and 200 nM EPAC proteins in buffer containing 50 mM Tris-HCl pH 7.5, 50 mM NaCl, 5 mM MgCl2, 1 mM DTT, 50 mM GDP and the indicated concentrations of test compounds at room temperature using half-area 96-well plates (Corning Costar 3915). The exchange reaction was monitored using a Spectramax M2 Plate Reader (Molecular Devices) with the excitation/emission wavelengths set at 485/515 nm. The reaction rate constant (kobs) was determined by globally fitting the experimental data to a single exponential equation.
The test system of series [5] is R. australia. Conditions: HUVEC cells, vs vehicle.
In series [6] the test system is OVA-specific IgG1 antibodies. As to conditions: mouse, in vivo.
Series [7] deals with T1, EPAC1. Conditions: read-out: IC50 in inhibiting EPAC1; reference compound, Zhu et al., Sci. Rep. (2015); cited from earlier work.
The target of series [8] is T1, EPAC1. Briefly: biochemical.
Series [9] concerns the target T2, EPAC2. Kind of series: biochemical. As to conditions: Rap1b-bGDP EPAC2 IC50, apparent IC50, EPAC2 GEF activity, 20 μM cAMP.
Description: as §3, §4
Series [10] concerns the target T1, EPAC1. Conditions: at 100 μM. The source says:
(§2) Given the physiological and pathophysiological significance of EPAC proteins, developing pharmacological EPAC modulators has attracted more and more attention. Most EPAC agonists are derivatives of cAMP, while non-cyclic nucleotide ligands usually display EPAC inhibitory activities. Cheng group developed a sensitive and robust fluorescence-based high throughput (HTS) assay, (Tsalkova et al., PloS one, (2012) 7:e30441) and discovered a series of non-cyclic nucleotide EPAC inhibitors (Tsalkova et al., Proc. Natl. Acad. Sci. U.S.A., (2012) 109:18613-18).

The test system of series [11] is EPAC2. As to conditions: read-out: IC50 against EPAC2.
Source text: as §2

[12] abbreviates: Rap 1b-bGDP EPAC1 IC50, apparent IC50, EPAC1 GEF activity, 20 μM cAMP.
[13] abbreviates: apparent IC50, EPAC1 GEF activity, 20 μM cAMP.

As usually defined, the half-life is the time in which the quantity being followed falls by half. High values mean slow decline, low ones rapid decline. In general, IC50 refers to the concentration that inhibits the measured activity by half.

Each structure is given as a SMILES string. Where two headings read alike, the source gives them in different places. Bounds are passed on as bounds.

For `CC(C)(C)c1cc(C(=O)/C(C#N)=N/Nc2cccc(Cl)c2)no1` [ESI-09], in [1], the half-life turned out to be 3.5 h, the maximal blood level is 42,520 ng/ml and the “time of maximal blood level” value turned out to be 0.5 h. Besides, the “share of treatment group showing sign of sickness” value in the series on R. australia [2] is on record as 10%. In addition, the Plasma leptin result with leptin is “significantly reduced”. Besides, in the series on pSTAT3 Y705, the “pSTAT3 Y705 level” value is on record as “enhanced”. In addition, the “Relative GEF activity, EPAC1-mediated Rap1b-bGDP exchange” value on EPAC1 [3] is listed as “Dose-dependent inhibition”. In addition, on EPAC1 [3] (read-out: Rap 1b-bGDP EPAC1 IC50), the IC50 turned out to be 10.8 ± 1.6 µM. Moreover, the “fold more potent on EPAC2 inhibition than on EPAC1” value at EPAC2 [4] (EPAC2 vs EPAC1) stood at 2.5 fold. For the same molecule, on EPAC2 [4], the “Relative GEF activity, EPAC2-mediated Rap1b-bGDP exchange” value is listed as “Dose-dependent inhibition” and the IC50 was 4.4 µM. For the same molecule, the “number of intracellular R. australia” value in the series with R. australia [5] was “dramatically reduced”. In addition, the “level of serum OVA-specific IgG1 antibodies” value in series [6] is listed as “significantly higher”. Further, the half-maximal inhibitory concentration (IC50) at EPAC1 [7] was 10.8 µM.
For the molecule `N#CC(=NNc1ccc(Cl)c(C(F)(F)F)c1)C(=O)c1cc(-c2ccccc2)on1` [Compound 14, N-(3-Trifluromethyl-4-chlorophenyl)-2-oxo-2-(5-phenylisoxazol-3-yl)acetohydrazonoyl cyanide], the IC50 at EPAC2 [4] turned out to be […].
Take `COc1ccc(-c2cc(C(=O)C(C#N)=NNc3ccc(Cl)c(C(F)(F)F)c3)no2)cc1` [Compound 23, N-(4-Chloro-3-(trifluoromethyl)phenyl)-2-oxo-2-(5-(4-methoxyphenyl)isoxazol-3-yl)acetohydrazonoyl cyanide]: the figures for the IC50 at EPAC1 [8] (setting [12]) and on EPAC2 [9] were under 8 µM and 4.5 ± 1 µM, respectively.
Take `Cc1cc(C)c(Nc2ccc(Cl)c(C(F)(F)F)c2)c(C)c1` [MAY0132]: on EPAC1 [10], the “inhibition against EPAC1” value is recorded as “no significant inhibition”. Also, the IC50 with EPAC2 [11] worked out at 0.4 µM.
Turning to `N#CC(=NNc1ccc(Cl)c(C(F)(F)F)c1)C(=O)c1cc(-c2ccco2)on1` [Compound 27, N-(4-Chloro-3-(trifluoromethyl)phenyl)-2-(5-(furan-2-yl)isoxazol-3-yl)-2-oxoacetohydrazonoyl cyanide], the “Relative GEF activity, EPAC2-mediated Rap1b-bGDP exchange” value at EPAC2 [4] was “Dose-dependent inhibition”. In addition, the IC50 on EPAC1 [8] (setting [12]) was found to be 4.2 ± 0.9 µM; at EPAC2 [9], 2.3 ± 0.2 µM.
Consider `N#CC(=NNc1cc(Cl)cc(C(F)(F)F)c1)C(=O)c1noc2ccccc12` [Compound 31, 2-(Benzo[d]isoxazol-3-yl)-N-(3-chloro-5-(trifluoromethyl)phenyl)-2-oxoacetohydrazonoyl cyanide], for which the results for the IC50 on EPAC1 [8] (setting [12]) and at EPAC2 [9] were 4.6 ± 0.8 µM and 2.2 ± 0.2 µM, respectively.
For `CC(C)(C)c1ccc(-c2cc(C(=O)C(C#N)=NNc3ccc(Cl)c(C(F)(F)F)c3)no2)cc1` [Compound 10, N-(4-Chloro-3-(trifluoromethyl)phenyl)-2-oxo-2-(5-(4-(tert-butyl)phenyl)isoxazol-3-yl)acetohydrazonoyl cyanide], the “Rap 1b-bGDP EPAC1 IC50” value on EPAC1 [3] (setting [13]) is “low micromolar range”. Besides, the “Relative GEF activity, EPAC2-mediated Rap1b-bGDP exchange” value on EPAC2 [4] is listed as “Dose-dependent inhibition”. Further, the half-maximal inhibitory concentration (IC50) is 7.3 µM on EPAC1 [8] (setting [12]) and 2.2 ± 0.3 µM at EPAC2 [9].
Take `N#CC(=NNc1cc(Cl)cc(C(F)(F)F)c1)C(=O)c1cc(-c2ccco2)on1` [Compound 26, N-(3-Chloro-5-(trifluoromethyl)phenyl)-2-(5-(furan-2-yl)isoxazol-3-yl)-2-oxoacetohydrazonoyl cyanide]: at EPAC1 [3], the “Rap 1b-bGDP EPAC1 IC50” value is “low micromolar range” and the “Relative GEF activity, EPAC1-mediated Rap1b-bGDP exchange” value is on record as “Dose-dependent inhibition”. Half-maximal inhibition against EPAC1 [8] (Rap 1b-bGDP EPAC1 IC50) (IC50) required 3.6 ± 0.2 µM. For the same molecule, the IC50 at EPAC2 [9] was 2.2 ± 0.3 µM.
In the case of `N#CC(=NNc1ccc(Cl)c(C(F)(F)F)c1)C(=O)c1noc2ccccc12` [Compound 33, 2-(Benzo[d]isoxazol-3-yl)-N-(4-chloro-3-(trifluoromethyl)phenyl)-2-oxoacetohydrazonoyl cyanide], the “Rap 1b-bGDP EPAC1 IC50” value at EPAC1 [3] (setting [13]) was “low micromolar range”. Further, the “Relative GEF activity, EPAC1-mediated Rap1b-bGDP exchange” value on EPAC1 [3] (in the presence of 20 μM cAMP, figure) is recorded as “Dose-dependent inhibition”. In addition, the “Relative GEF activity, EPAC2-mediated Rap1b-bGDP exchange” value at EPAC2 [4] was “Dose-dependent inhibition”. In addition, the IC50 at EPAC1 [8] (setting [12]) stood at 2.7 ± 0.3 µM; on EPAC2 [9], 1.9 µM.
Regarding `N#CC(=NNc1ccc(C(F)(F)F)c(Cl)c1)C(=O)c1noc2ccccc12` [Compound 32, 2-(Benzo[d]isoxazol-3-yl)-N-(3-chloro-4-(trifluoromethyl)phenyl)-2-oxoacetohydrazonoyl cyanide], the “Rap 1b-bGDP EPAC1 IC50” value at EPAC1 [3] (setting [13]) is “low micromolar range”. Further, the IC50 on EPAC1 [8] (setting [12]) worked out at 3 ± 0.3 µM; at EPAC2 [9], 2.2 ± 0.4 µM.
Consider `N#CC(=NNc1cc(C(F)(F)F)cc(C(F)(F)F)c1)C(=O)c1cc(-c2ccccc2)on1` [Compound 15, N-(3,5-Bis(trifluoromethyl)phenyl)-2-oxo-2-(5-phenylisoxazol-3-yl)acetohydrazonoyl cyanide], for which the 50% inhibitory concentration (IC50) against EPAC1 [8] (Rap 1b-bGDP EPAC1 IC50) is 7.2 ± 0.7 µM; at EPAC2 [9], 3.3 ± 0.8 µM.
